Assay in all cases: microbe, parasite or virus in culture
Test [1] concerns EBOV-GFP (recombinant Ebola Zaire virus expressing green fluorescence protein). The format is cell-based. The conditions noted are these: for inhibition at 20 µM: Zaire ebolavirus, Vero C1008, 48 h, read-out: EBOV % Inhibition (20 μM).
Test [2] deals with MPXV-GFP (recombinant monkeypox virus expressing GFP, Zaire strain). The format is cell-based. The following applies: Vero C1008, in Primates, 48 h, read-out: Monkey Pox % Inhibition (20 μM).
The test system of a further test is EBOV-GFP. The format is cell-based, Ebola Zaire virus.

Read-outs that look alike come from different tables or passages of the source.

As to `N=C(N)c1ccc2[nH]c(/C=C/c3cc4cc(C(=N)N)ccc4o3)cc2c1` [NSC 290107, 2-[(E)-2-(5-carbamimidoylbenzofuran-2-yl)ethenyl]-1H-indole-5-carboximidamide], the inhibition at 20 µM in test [1] worked out at 33.6%.

On to `C(=C\c1cc2cc(C3=NCCN3)ccc2o1)/c1ccc(C2=NCCN2)cc1` [NSC 308570, 2-[2-[(E)-2-[4-(4,5-dihydro-1H-imidazol-2-yl)phenyl]ethenyl]benzofuran-5-yl]-4,5-dihydro-1H-imidazole], for which the inhibition at 20 µM in test [1] was determined as 30.7%.

With `c1cc2cc(-c3cc4ccc(C5=NCCN5)cc4[nH]3)[nH]c2cc1C1=NCCN1` [NSC 330688, 6-(4,5-dihydro-1H-imidazol-2-yl)-2-[6-(4,5-dihydro-1H-imidazol-2-yl)-1H-indol-2-yl]-1H-indole], the inhibition at 20 µM in test [1] turned out to be 51.3%; in test [2], 84.9%.

As to `N=C(N)c1ccc2oc(/C=C/C=C/c3cc4cc(C(=N)N)ccc4o3)cc2c1` [NSC 300511, 2-[(1E,3E)-4-(5-carbamimidoylbenzofuran-2-yl)buta-1,3-dienyl]benzofuran-5-carboximidamide], the inhibition at 20 µM in test [1] is 49.2%.

`N=C(N)c1ccc2cc(/C=C/c3cc4ccc(C(=N)N)cc4o3)oc2c1` [NSC 294199, 2-[(E)-2-(6-carbamimidoylbenzofuran-2-yl)ethenyl]benzofuran-6-carboximidamide]: the values for the inhibition at 20 µM in test [1] and in test [2] were 68.8% and 40.9%, respectively.

Turning to `C(=C\c1cc2cc(C3=NCCN3)ccc2o1)/c1cc2cc(C3=NCCN3)ccc2o1` [NSC 278999, 2-[2-[(E)-2-[5-(4,5-dihydro-1H-imidazol-2-yl)benzofuran-2-yl]ethenyl]benzofuran-5-yl]-4,5-dihydro-1H-imidazole], the inhibition at 20 µM in test [1] was 55.6%.

Regarding `N=C(N)c1ccc(Oc2ccc(-c3cc4ccc(C(=N)N)cc4[nH]3)cc2)cc1` [NSC 240898, 2-[4-(4-carbamimidoylphenoxy)phenyl]-1H-indole-6-carboximidamide], the inhibition at 20 µM in test [2] was 98.1%.

For the compound `N=C(N)c1ccc(-c2cc(-c3ccc(C(=N)N)cc3)on2)cc1` [NSC 240900, 4-[3-(4-carbamimidoylphenyl)oxazol-5-yl]benzenecarboximidamide], in test [2], the inhibition at 20 µM came to 79.9%.

With `NC(N)=NN=Cc1ccc2cc(-c3ccc(/C=N/N=C(N)N)cc3)sc2c1` [NSC 341909, 2-[[2-[4-[(E)-(diaminomethylidenehydrazinylidene)methyl]phenyl]benzothiophen-6-yl]methylideneamino]guanidine], the inhibition at 20 µM is 57.5% in test [1] and 95.8% in test [2].

Regarding `N=C(N)c1ccc2oc(/C=C/c3cc4cc(C(=N)N)ccc4s3)cc2c1` [NSC 266472, 2-[(E)-2-(5-carbamimidoylbenzothiophen-2-yl)ethenyl]benzofuran-5-carboximidamide], in test [1], the inhibition at 20 µM worked out at 67.5%.

In the case of `C(=C\c1cc2cc(C3=NCCN3)ccc2o1)/c1cc2cc(C3=NCCN3)ccc2[nH]1` [NSC 290108, 5-(4,5-dihydro-1H-imidazol-2-yl)-2-[(E)-2-[5-(4,5-dihydro-1H-imidazol-2-yl)benzofuran-2-yl]ethenyl]-1H-indole], the figures for the inhibition at 20 µM in test [1] and in test [2] were 45% and 45.1%, respectively.

For `N=C(N)c1ccc(-c2cc3ccc(C(=N)N)cc3s2)cc1` [NSC 240890, 2-(4-carbamimidoylphenyl)benzothiophene-6-carboximidamide; 2-hydroxypropanoic acid], the figures for the inhibition at 20 µM in test [1] and in test [2] were 54.9% and 46.7%, respectively.

On to `O=C(Nc1ccc(C2=NCCN2)cc1)c1cc2ccc(C3=NCCN3)cc2[nH]1` [NSC 294206, 6-(4,5-dihydro-1H-imidazol-2-yl)-N-[4-(4,5-dihydro-1H-imidazol-2-yl)phenyl]-1H-indole-2-carboxamide], for which, in the test with EBOV-GFP, the “dose dependent antiviral activity toward EBOV-GFP” value was “dose dependent antiviral activity”. Further, the inhibition at 20 µM in test [1] came out at 61.5%; in test [2], 86%.

`c1cc(-c2cc3cc(C4=NCCN4)ccc3s2)ccc1C1=NCCN1` [NSC 308569, 2-[2-[4-(4,5-dihydro-1H-imidazol-2-yl)phenyl]benzothiophen-5-yl]-4,5-dihydro-1H-imidazole]: the inhibition at 20 µM in test [1] turned out to be 35.3%; in test [2], 95.8%.

In the case of `O=C1C(SCCO)=C(SCCO)C(=O)c2ccccc21` [NSC 95397, 2,3-bis((2-hydroxyethyl)thio)naphthoquinone], in test [1], the “EBOV % Inhibition (20 μM)” value was determined as 75.3%.

Consider `CCN(CC)CCCNc1nc(C)cc(Nc2ccc3nc(C)cc(N)c3c2)n1` [NSC 23767, N^6-(2-((3-(diethylamino)propyl)amino)-6-methyl-4-pyrimidinyl)-2-methyl-4,6-quinolinediamine], for which, in test [1], the inhibition at 20 µM turned out to be 74.1%.

Turning to `O=C(Nc1ccc(C2=NCCN2)cc1)c1cc2ccc(C3=NCCN3)cc2o1` [NSC 294208, 6-(4,5-dihydro-1H-imidazol-2-yl)-N-[4-(4,5-dihydro-1H-imidazol-2-yl)phenyl]benzofuran-2-carboxamide], the inhibition at 20 µM in test [1] worked out at 38.8%.

In the case of `Nc1ccc(-c2cc3ccc(C4=NCCN4)cc3[nH]2)cc1` [NSC 369715, 4-(6-(4,5-dihydro-1H-imidazol-2-yl)-1H-indol-2-yl)phenylamine], the inhibition at 20 µM in test [1] worked out at 56.8%.

Regarding `N=C(N)c1ccc(-c2[nH]c3cc(C(=N)N)ccc3c2N)cc1` [NSC 300509, 3-amino-2-(4-carbamimidoylphenyl)-1H-indole-6-carboximidamide], the inhibition at 20 µM in test [2] was 84.9%.

As for `N=C(N)c1ccc(-c2cc3cc(C(=N)N)ccc3s2)cc1` [NSC 240891, 2-(4-carbamimidoylphenyl)benzothiophene-5-carboximidamide], the figures for the inhibition at 20 µM in test [1] and in test [2] were 40.3% and 99.4%, respectively.

`c1cc(-c2[nH]c3cc(C4=NCCN4)ccc3c2-c2cc3ccc(C4=NCCN4)cc3[nH]2)ccc1C1=NCCN1` [NSC 352341, 6-(4,5-dihydro-1H-imidazol-2-yl)-3-[6-(4,5-dihydro-1H imidazol-2-yl)-1H-indol-2-yl]-2-[4-(4,5-dihydro-1H-imidazol-2-yl)phenyl]-1H-indole]: the “EBOV % Inhibition (20 μM)” value in test [1] (20 µM) is on record as 41.2%.

In the case of `N=C(N)c1ccc(-c2nc3ccc(C(=N)N)cc3[nH]2)cc1` [NSC 240894, 2-(4-carbamimidoylphenyl)-3H-benzoimidazole-5-carboximidamide], the inhibition at 20 µM in test [2] worked out at 89.7%.

For the compound `N=C(N)c1ccc(-n2cc3cc(C(=N)N)ccc3n2)cc1` [NSC 240895, 2-(4-carbamimidoylphenyl)indazole-5-carboximidamide], the inhibition at 20 µM in test [1] stood at 32.2%; in test [2], 99.7%.

`Cc1c2ccncc2c(C)c2c1[nH]c1ccc(O)cc12` [NSC 264136, 5,11-dimethyl-6H-pyrido[4,3-b]carbazol-9-ol]: in test [1], the inhibition at 20 µM came out at 63.1%.

Consider `O=C(Nc1ccc(C2=NCCN2)cc1)c1cc2cc(C3=NCCN3)ccc2o1` [NSC 290111, 5-(4,5-dihydro-1H-imidazol-2-yl)-N-[4-(4,5-dihydro-1H-imidazol-2-yl)phenyl]benzofuran-2-carboxamide], for which the inhibition at 20 µM in test [1] was 40%.

In the case of `C(/C=C/c1cc2cc(C3=NCCN3)ccc2o1)=C\c1ccc(C2=NCCN2)cc1` [NSC 308573, 2-[2-[(1E,3E)-4-[4-(4,5-dihydro-1H-imidazol-2-yl)phenyl]buta-1,3-dienyl]benzofuran-5-yl]-4,5-dihydro-1H-imidazole], the inhibition at 20 µM in test [1] stood at 54.2%.

In the case of `N=C(N)c1ccc2c(c1)=NC(=C(N)N)C=2` [NSC 330689, 2-(diaminomethylidene)indole-6-carboximidamide], the inhibition at 20 µM in test [2] was 89.9%.

In the case of `N=C(N)c1ccc(-c2ccc(-c3ccc(C(=N)N)cc3)s2)cc1` [NSC 300510, 4-[5-(4-carbamimidoylphenyl)thiophen-2-yl]benzenecarboximidamide], the “dose dependent antiviral activity toward EBOV-GFP” value in the test on EBOV-GFP is on record as “dose dependent antiviral activity”. The inhibition at 20 µM came out at 59.7% in test [1] and 89.9% in test [2].

Take `CC(=O)NC1=C(Sc2ccc(Cl)cc2)C(=O)c2ccccc2C1=O` [NSC 128981, N-(3-((4-chlorophenyl)thio)-1,4-dioxo-1,4-dihydro-2-naphthalenyl)acetamide]: in the test on EBOV-GFP (Zaire ebolavirus, Vero C1008, read-out: IC50 (read from graphs of % of control infection)), the IC50 is about 15 µM. Also, the inhibition at 20 µM in test [1] turned out to be 97.7%.

For the compound `c1cc(-c2cc3ccc(C4=NCCN4)cc3[nH]2)ccc1C1=NCCN1` [NSC 278995, 6-(4,5-dihydro-1H-imidazol-2-yl)-2-[4-(4,5-dihydro-1H-imidazol-2-yl)phenyl]-1H-indole], the inhibition at 20 µM in test [2] was 99.3%.

In the case of `c1cc(-c2[nH]c3cc(C4=NCCN4)ccc3c2-c2cc3ccc(C4=NCCN4)cc3[nH]2)ccc1C1=NCCN1` [NSC 341911, 6-(4,5-dihydro-1H-imidazol-2-yl)-3-[6-(4,5-dihydro-1H-imidazol-2-yl)-1H-indol-2-yl]-2-[4-(4,5-dihydro-1H-imidazol-2-yl)phenyl]-1H-indole], in test [1], the inhibition at 20 µM came to 33.2%.

As for `N=C(N)c1ccc(/C=C/C=C/c2cc3cc(C(=N)N)ccc3o2)cc1` [NSC 308572, 2-[(1E,3E)-4-(4-carbamimidoylphenyl)buta-1,3-dienyl]benzofuran-5-carboximidamide], the inhibition at 20 µM in test [1] worked out at 32.8%.

With `C(/C=C/c1cc2cc(C3=NCCN3)ccc2o1)=C\c1cc2cc(C3=NCCN3)ccc2o1` [NSC 308571, 2-[2-[(1E,3E)-4-[5-(4,5-dihydro-1H-imidazol-2-yl)benzofuran-2-yl]buta-1,3-dienyl]benzofuran-5-yl]-4,5-dihydro-1H-imidazole], the inhibition at 20 µM in test [1] turned out to be 61.2%.
